Measurements taken from ChEMBL document CHEMBL1151757, “Synthesis, radiosynthesis, and biological evaluation of fluorine-18-labeled 2beta-carbo(fluoroalkoxy)-3beta-(3'-((Z)-2-haloethenyl)phenyl)nortropanes: candidate radioligands for in vivo imaging of the serotonin transporter with positron emission tomography” (J Med Chem, 2008).

What was measured:
Caudate [1] = experiment: Drug uptake in anesthetized cynomolgus monkey brain caudate after 175 mins postinjection; type: ADME, organism-based, Macaca fascicularis, Caudate nucleus; conditions: in vivo
[2] = Drug uptake in anesthetized cynomolgus monkey brain cerebellum after 105 mins postinjection; type: ADME, organism-based, Macaca fascicularis; conditions: in vivo, 1.75 h
[3] = Ratio of drug uptake in midbrain to cerebellum in anesthetized cynomolgus monkey after 18.5 mins postinjection; type: ADME, organism-based, Macaca fascicularis; conditions: in vivo
[4] = Ratio of drug uptake in occipital lobe to cerebellum in anesthetized cynomolgus monkey after 4.5 mins postinjection; type: ADME, organism-based, Macaca fascicularis; conditions: in vivo, 0.075 h
Pons [5] = experiment: Drug uptake in anesthetized cynomolgus monkey brain pons after 145 mins postinjection; type: ADME, organism-based, Macaca fascicularis; conditions: in vivo
[6] = Ratio of drug uptake in midbrain to cerebellum in anesthetized cynomolgus monkey after 9.5 mins postinjection; type: ADME, organism-based, Macaca fascicularis; conditions: in vivo
[7] = Ratio of drug uptake in midbrain to cerebellum in anesthetized cynomolgus monkey after 145 mins postinjection; type: ADME, organism-based, Macaca fascicularis; conditions: in vivo
[8] = Ratio of drug uptake in medulla to cerebellum in anesthetized cynomolgus monkey after 135 mins postinjection; type: ADME, organism-based, Macaca fascicularis; conditions: in vivo, 2.25 h
Medulla [9] = experiment: Drug uptake in anesthetized cynomolgus monkey brain medulla after 1.5 mins postinjection; type: ADME, organism-based, Macaca fascicularis; conditions: in vivo, 0.025 h
Medulla [10] = experiment: Drug uptake in anesthetized cynomolgus monkey brain medulla after 235 mins postinjection; type: ADME, organism-based, Macaca fascicularis; conditions: in vivo
Medulla [11] = experiment: Drug uptake in anesthetized cynomolgus monkey brain medulla after 185 mins postinjection; type: ADME, organism-based, Macaca fascicularis; conditions: in vivo
Pons [12] = experiment: Drug uptake in anesthetized cynomolgus monkey brain pons after 9.5 mins postinjection; type: ADME, organism-based, Macaca fascicularis; conditions: in vivo
[13] = Drug uptake in anesthetized cynomolgus monkey brain occipital lobe after 12.5 mins postinjection; type: ADME, organism-based, Macaca fascicularis; conditions: in vivo
[14] = Ratio of drug uptake in midbrain to cerebellum in anesthetized cynomolgus monkey after 85 mins postinjection; type: ADME, organism-based, Macaca fascicularis; conditions: in vivo
Medulla [15] = experiment: Drug uptake in anesthetized cynomolgus monkey brain medulla after 135 mins postinjection; type: ADME, organism-based, Macaca fascicularis; conditions: in vivo, 2.25 h
Midbrain [16] = experiment: Drug uptake in anesthetized cynomolgus monkey brain midbrain after 6.5 mins postinjection; type: ADME, organism-based, Macaca fascicularis; set-up: unit not given here; conditions: in vivo
Putamen [17] = experiment: Drug uptake in anesthetized cynomolgus monkey brain putamen after 4.5 mins postinjection; type: ADME, organism-based, Macaca fascicularis; set-up: unit not given here; conditions: in vivo, 0.075 h
[18] = Drug uptake in anesthetized cynomolgus monkey brain frontal lobe after 4.5 mins postinjection; type: ADME, organism-based, Macaca fascicularis; conditions: in vivo, 0.075 h
Medulla [19] = experiment: Drug uptake in anesthetized cynomolgus monkey brain medulla after 155 mins postinjection; type: ADME, organism-based, Macaca fascicularis; conditions: in vivo
Putamen [20] = experiment: Drug uptake in anesthetized cynomolgus monkey brain putamen after 0.5 mins postinjection; type: ADME, organism-based, Macaca fascicularis; conditions: in vivo
Thalamus [21] = experiment: Drug uptake in anesthetized cynomolgus monkey brain thalamus after 155 mins postinjection; type: ADME, organism-based, Macaca fascicularis; set-up: unit not given here; conditions: in vivo
[22] = Drug uptake in anesthetized cynomolgus monkey brain occipital lobe after 65 mins postinjection; type: ADME, organism-based, Macaca fascicularis; conditions: in vivo
Putamen [23] = experiment: Drug uptake in anesthetized cynomolgus monkey brain putamen after 18.5 mins postinjection; type: ADME, organism-based, Macaca fascicularis; set-up: unit not given here; conditions: in vivo
Midbrain [24] = experiment: Drug uptake in anesthetized cynomolgus monkey brain midbrain after 155 mins postinjection; type: ADME, organism-based, Macaca fascicularis; conditions: in vivo
[25] = Ratio of drug uptake in putamen to cerebellum in anesthetized cynomolgus monkey after 3.5 mins postinjection; type: ADME, organism-based, Macaca fascicularis; conditions: in vivo
[26] = Drug uptake in anesthetized cynomolgus monkey brain frontal lobe after 55 mins postinjection; type: ADME, organism-based, Macaca fascicularis; conditions: in vivo
[27] = Drug uptake in anesthetized cynomolgus monkey brain frontal lobe after 27.5 mins postinjection; type: ADME, organism-based, Macaca fascicularis; conditions: in vivo
[28] = Ratio of drug uptake in medulla to cerebellum in anesthetized cynomolgus monkey after 95 mins postinjection; type: ADME, organism-based, Macaca fascicularis; conditions: in vivo
[29] = Ratio of drug uptake in caudate to cerebellum in anesthetized cynomolgus monkey after 95 mins postinjection; type: ADME, organism-based, Macaca fascicularis; conditions: in vivo
[30] = Drug uptake in anesthetized cynomolgus monkey brain cerebellum after 125 mins postinjection; type: ADME, organism-based, Macaca fascicularis; conditions: in vivo
Putamen [31] = experiment: Drug uptake in anesthetized cynomolgus monkey brain putamen after 145 mins postinjection; type: ADME, organism-based, Macaca fascicularis; conditions: in vivo
[32] = Ratio of drug uptake in pons to cerebellum in anesthetized cynomolgus monkey after 215 mins postinjection; type: ADME, organism-based, Macaca fascicularis; conditions: in vivo
Caudate [33] = experiment: Drug uptake in anesthetized cynomolgus monkey brain caudate after 185 mins postinjection; type: ADME, organism-based, Macaca fascicularis, Caudate nucleus; conditions: in vivo
Thalamus [34] = experiment: Drug uptake in anesthetized cynomolgus monkey brain thalamus after 195 mins postinjection; type: ADME, organism-based, Macaca fascicularis; conditions: in vivo, 3.25 h
Thalamus [35] = experiment: Drug uptake in anesthetized cynomolgus monkey brain thalamus after 175 mins postinjection; type: ADME, organism-based, Macaca fascicularis; set-up: unit not given here; conditions: in vivo
[36] = Drug uptake in anesthetized cynomolgus monkey brain frontal lobe after 145 mins postinjection; type: ADME, organism-based, Macaca fascicularis; conditions: in vivo
[37] = Ratio of drug uptake in medulla to cerebellum in anesthetized cynomolgus monkey after 12.5 mins postinjection; type: ADME, organism-based, Macaca fascicularis; conditions: in vivo
Midbrain [38] = experiment: Drug uptake in anesthetized cynomolgus monkey brain midbrain after 205 mins postinjection; type: ADME, organism-based, Macaca fascicularis; conditions: in vivo
[39] = Drug uptake in anesthetized cynomolgus monkey brain frontal lobe after 22.5 mins postinjection; type: ADME, organism-based, Macaca fascicularis; conditions: in vivo, 0.375 h
Medulla [40] = experiment: Drug uptake in anesthetized cynomolgus monkey brain medulla after 4.5 mins postinjection; type: ADME, organism-based, Macaca fascicularis; conditions: in vivo, 0.075 h
Thalamus [41] = experiment: Drug uptake in anesthetized cynomolgus monkey brain thalamus after 18.5 mins postinjection; type: ADME, organism-based, Macaca fascicularis; set-up: unit not given here; conditions: in vivo
Midbrain [42] = experiment: Drug uptake in anesthetized cynomolgus monkey brain midbrain after 1.5 mins postinjection; type: ADME, organism-based, Macaca fascicularis; set-up: unit not given here; conditions: in vivo, 0.025 h
[43] = Ratio of drug uptake in pons to cerebellum in anesthetized cynomolgus monkey after 18.5 mins postinjection; type: ADME, organism-based, Macaca fascicularis; conditions: in vivo
[44] = Drug uptake in anesthetized cynomolgus monkey brain occipital lobe after 105 mins postinjection; type: ADME, organism-based, Macaca fascicularis; conditions: in vivo, 1.75 h
[45] = Ratio of drug uptake in medulla to cerebellum in anesthetized cynomolgus monkey after 0.5 mins postinjection; type: ADME, organism-based, Macaca fascicularis; conditions: in vivo
[46] = Drug uptake in anesthetized cynomolgus monkey brain occipital lobe after 18.5 mins postinjection; type: ADME, organism-based, Macaca fascicularis; conditions: in vivo
Midbrain [47] = experiment: Drug uptake in anesthetized cynomolgus monkey brain midbrain after 75 mins postinjection; type: ADME, organism-based, Macaca fascicularis; set-up: unit not given here; conditions: in vivo, 1.25 h
Medulla [48] = experiment: Drug uptake in anesthetized cynomolgus monkey brain medulla after 215 mins postinjection; type: ADME, organism-based, Macaca fascicularis; conditions: in vivo
[49] = Drug uptake in anesthetized cynomolgus monkey brain cerebellum after 45 mins postinjection; type: ADME, organism-based, Macaca fascicularis; conditions: in vivo, 0.75 h
Thalamus [50] = experiment: Drug uptake in anesthetized cynomolgus monkey brain thalamus after 185 mins postinjection; type: ADME, organism-based, Macaca fascicularis; conditions: in vivo
[51] = Drug uptake in awake rhesus monkey brain thalamus after 10.5 mins postinjection; type: ADME, organism-based, Macaca mulatta; conditions: in vivo, 0.175 h
[52] = Drug uptake in awake rhesus monkey brain caudate after 13.5 mins postinjection; type: ADME, organism-based, Macaca mulatta, Caudate nucleus; conditions: in vivo, 0.225 h
[53] = Ratio of drug uptake in putamen to cerebellum in awake rhesus monkey after 45 mins postinjection; type: ADME, organism-based, Macaca mulatta; conditions: in vivo, 0.75 h
[54] = Ratio of drug uptake in thalamus to cerebellum in awake rhesus monkey after 17.5 mins postinjection; type: ADME, organism-based, Macaca mulatta; conditions: in vivo
[55] = Drug uptake in awake rhesus monkey brain frontal lobe after 75 mins postinjection; type: ADME, organism-based, Macaca mulatta; conditions: in vivo, 1.25 h
[56] = Ratio of drug uptake in thalamus to cerebellum in awake rhesus monkey after 105 mins postinjection; type: ADME, organism-based, Macaca mulatta; conditions: in vivo, 1.75 h
[57] = Drug uptake in awake rhesus monkey brain medulla after 65 mins postinjection; type: ADME, organism-based, Macaca mulatta; conditions: in vivo
[58] = Drug uptake in awake rhesus monkey brain frontal lobe after 105 mins postinjection; type: ADME, organism-based, Macaca mulatta; conditions: in vivo, 1.75 h
[59] = Drug uptake in awake rhesus monkey brain caudate after 25 mins postinjection; type: ADME, organism-based, Macaca mulatta, Caudate nucleus; conditions: in vivo
[60] = Drug uptake in awake rhesus monkey brain pons after 25 mins postinjection; type: ADME, organism-based, Macaca mulatta; conditions: in vivo
[61] = Ratio of drug uptake in midbrain to cerebellum in awake rhesus monkey after 85 mins postinjection; type: ADME, organism-based, Macaca mulatta; conditions: in vivo

O=C(OCCC[18F])C1C2CCC(CC1c1cccc(/C=C\I)c1)N2 (stereo not given)
Drug uptake (Caudate [1]): 2.83
Drug uptake [2]: 3.31
Ratio [3]: 1
Ratio [4]: 0.8
Drug uptake (Pons [5]): 3.74
Ratio [6]: 0.9
Ratio [7]: 1.8
Ratio [8]: 1.7
Drug uptake (Medulla [9]): 0.35
Drug uptake (Medulla [10]): 3.15
Drug uptake (Medulla [11]): 3.93
Drug uptake (Pons [12]): 3.47
Drug uptake [13]: 3.6
Ratio [14]: 1.4
Drug uptake (Medulla [15]): 4.5
Drug uptake (Midbrain [16]): 3.41
Drug uptake (Putamen [17]): 2.31
Drug uptake [18]: 1.31
Drug uptake (Medulla [19]): 4.09
Drug uptake (Putamen [20]): 0.01
Drug uptake (Thalamus [21]): 3.73
Drug uptake [22]: 3.86
Drug uptake (Putamen [23]): 4.42
Drug uptake (Midbrain [24]): 4.35
Ratio [25]: 0.8
Drug uptake [26]: 2.82
Drug uptake [27]: 2.72
Ratio [28]: 1.4
Ratio [29]: 1.1
Drug uptake [30]: 2.79
Drug uptake (Putamen [31]): 3.91
Ratio [32]: 1.5
Drug uptake (Caudate [33]): 2.82
Drug uptake (Thalamus [34]): 3.2
Drug uptake (Thalamus [35]): 3.44
Drug uptake [36]: 2.29
Ratio [37]: 1
Drug uptake (Midbrain [38]): 3.86
Drug uptake [39]: 2.64
Drug uptake (Medulla [40]): 2.58
Drug uptake (Thalamus [41]): 4.22
Drug uptake (Midbrain [42]): 0.32
Ratio [43]: 0.9
Drug uptake [44]: 3.18
Ratio [45]: 1.5
Drug uptake [46]: 3.85
Drug uptake (Midbrain [47]): 5
Drug uptake (Medulla [48]): 3.66
Drug uptake [49]: 4.48
Drug uptake (Thalamus [50]): 3.29

O=C(OCC[18F])C1C2CCC(CC1c1ccc(/C=C\I)cc1)N2 (stereo not given)
Drug uptake (Caudate [1]): 3
Drug uptake [51]: 1.89
Drug uptake [52]: 1.87
Ratio [4]: 0.8
Drug uptake (Pons [5]): 3.51
Ratio [53]: 1.6
Ratio [54]: 1.3
Drug uptake (Medulla [9]): 0.14
Drug uptake (Medulla [10]): 3.3
Drug uptake [55]: 2.18
Drug uptake (Medulla [11]): 3.41
Drug uptake (Pons [12]): 1.62
Ratio [56]: 2.8
Drug uptake (Medulla [15]): 3.69
Drug uptake (Midbrain [16]): 1.74
Drug uptake (Putamen [17]): 1.18
Drug uptake [57]: 2.28
Drug uptake (Medulla [19]): 3.73
Drug uptake (Putamen [20]): 0
Drug uptake (Thalamus [21]): 3.97
Drug uptake [58]: 2.07
Drug uptake [22]: 2.38
Drug uptake (Putamen [23]): 2.87
Drug uptake (Midbrain [24]): 4.65
Ratio [25]: 1
Drug uptake [27]: 1.76
Ratio [28]: 1.8
Ratio [29]: 1.4
Drug uptake (Putamen [31]): 4.31
Ratio [32]: 2.9
Drug uptake (Caudate [33]): 2.97
Drug uptake (Thalamus [34]): 3.67
Drug uptake (Thalamus [35]): 3.78
Drug uptake [59]: 2.75
Drug uptake (Midbrain [38]): 4.57
Drug uptake (Medulla [40]): 1.36
Drug uptake [60]: 2.29
Drug uptake (Thalamus [41]): 2.7
Drug uptake (Midbrain [42]): 0.1
Ratio [43]: 0.9
Drug uptake [46]: 1.81
Ratio [61]: 1.6
Drug uptake (Midbrain [47]): 4.41
Drug uptake (Medulla [48]): 3.32
Drug uptake (Thalamus [50]): 3.8
